Source: EP1674468A1, “Polymorphs of clopidogrel hydrobromide” (Ratiopharm GmbH, priority 2004, dated 2006)
Counter-ions that a name gives are not always drawn. Like-named read-outs stand apart in the source and are kept apart here.

What was measured:
[1] = Description: Example 10: Stability of the forms (solvent mediated transformation studies)
To assess the stability of the anhydrous Forms A and B, solvent mediated transformation experiments were performed. […] This was tested by viewing a few crystals of Form A/Form B under the microscope by placing them on a glass plate with a cover-slip, adding a drop of water and spreading around the cover. […] Table 3: Results of the solvent mediated transformation studies

platelet aggregation = conditions: 75 mg of base equivalent versus 325 mg of acetyl salicylic acid; cited from earlier work
[2] = in vivo; cited from earlier work
[3] = room temperature, closed glass container, after 8 to 10 month; PXRD, DSC, Raman
Source text: Polymorph Form B of clopidogrel hydrobromide obtained in example 2a) was stored at room temperature in a closed glass container.

[4] = 100 mg in 5 ml, water bath at 80-100°C
Description: Method example 1: 100 mg of clopidogrel hydrobromide HY-1 obtained according to example Ba) was dissolved in 5 ml of the solvent on a water bath at 80-100°C with constant shaking and the solvent was allowed to evaporate slowly at room temperature for 24 hours at ambient pressure.

[5] = benzene/ acetonitrile 1:1, method example b (dissolved at 70°C, evaporation 24 hours at room temperature)
Description: Method example b: 100 mg of clopidogrel hydrobromide HY-1 were dissolved in 3-5 ml of the first solvent at a temperature of 70°C. 8-10 ml of the second solvent were added to the solution over 3-5 minutes to reduce the polarity until it becomes a saturated solution. The solvent mixture was allowed to evaporate for 24 hours at room temperature at ambient pressure for 24 hours. The precipitate was filtered off.

For `COC(=O)[C@H](c1ccccc1Cl)N1CCc2sccc2C1` [A:B (1:1), clopidogrel hydrobromide], which Resulting form ([1]; solvent toluene, 1 day/10-30°C) is on record?
The Resulting form was “HY-2”.

What about the Resulting form ([1]; solvent water, 1 day/20°C) of the same compound?
Its Resulting form is “HY-1”.

What about the “polymorph produced on stirring” value ([1]; toluene (200 mg in 3-5 ml), 10-30°C, 1-4 days, formed after 1 day, confirmed after 4 days and 2-4 weeks by PXRD, DSC, TGA, Raman) of the same compound?
Its value is “HY-2”.

Which “effectiveness in blocking platelet aggregation versus acetyl salicylic acid” value (platelet aggregation) does the source give for `COC(=O)[C@H](c1ccccc1Cl)N1CCc2sccc2C1` [Clopidogrel, (αS)-α-(2-chlorophenyl)-6,7-dihydrothieno[3,2-c]-pyridine-5(4H)-acetic acid methyl ester] here?
Its value is “more effective”.

What about the “gastrointestinal bleeding versus acetyl salicylic acid” value [2] of the same compound?
The value was “much less”.

What does the source list for `COC(=O)[C@H](c1ccccc1Cl)N1CCc2sccc2C1` [Form A, clopidogrel hydrobromide]?
time span within which needle like crystals corresponding to HY-1 were formed ([1]; a few crystals on a glass plate under the microscope, a drop of water added): ≤ 30 min; time span within which the form is converted to the hydrate, i.e. HY-1 ([1]; apolar solvents containing minimal amounts of water): ≤ 1 h; Resulting form ([1]; solvent water, 30 min/25°C): HY-1

With `COC(=O)[C@H](c1ccccc1Cl)N1CCc2sccc2C1` [Form B, clopidogrel hydrobromide] as the compound, how does the “polymorphic form identified after storage” value [3] read?
Its value is “Form E”.

For `COC(=O)[C@H](c1ccccc1Cl)N1CCc2sccc2C1` [Form HY-1, clopidogrel hydrobromide], which solubility ([4]; solvent acetic acid) is on record?
Its solubility is “highly soluble”.

And the solubility ([4]; solvent acetone)?
Its solubility is “soluble”.

What about the solubility ([4]; solvent acetonitrile) of the same compound?
The solubility was “soluble”.

What about the solubility ([4]; solvent benzene) of the same compound?
Its solubility is “sparingly soluble”.

And the solubility ([4]; solvent chloroform)?
The solubility was “highly soluble”.

What about the solubility ([4]; solvent cyclohexane) of the same compound?
The solubility was “insoluble”.

What about the solubility ([4]; solvent dichloromethane) of the same compound?
Its solubility is “highly soluble”.

What about the solubility ([4]; solvent diethylether) of the same compound?
Its solubility is “insoluble”.

And the solubility ([4]; solvent dimethylformamide)?
The solubility was “soluble”.

What about the solubility ([4]; solvent dioxane) of the same compound?
The solubility was “soluble in hot”.

What about the solubility ([4]; solvent ethanol) of the same compound?
The solubility was “highly soluble”.

What about the solubility ([4]; solvent ethylacetate) of the same compound?
The solubility was “soluble in hot”.

What about the solubility ([4]; solvent i-propanol) of the same compound?
Its solubility is “highly soluble”.

What about the solubility ([4]; solvent methanol) of the same compound?
The solubility was “highly soluble”.

What about the solubility ([4]; solvent n-butanol) of the same compound?
The solubility was “highly soluble”.

And the solubility ([4]; solvent n-decane)?
Its solubility is “insoluble”.

What about the solubility ([4]; solvent n-hexane) of the same compound?
Its solubility is “insoluble”.

And the solubility ([4]; solvent n-pentanol)?
Its solubility is “soluble”.

What about the solubility ([4]; solvent n-propanol) of the same compound?
Its solubility is “highly soluble”.

What about the solubility ([4]; solvent nitromethane) of the same compound?
The solubility was “soluble”.

What about the solubility ([4]; solvent petrolether) of the same compound?
Its solubility is “insoluble”.

And the solubility ([4]; solvent tetrachloromethane)?
Its solubility is “insoluble”.

And the solubility ([4]; solvent tetrahydrofurane)?
Its solubility is “soluble in hot”.

What about the solubility ([4]; solvent toluene) of the same compound?
Its solubility is “soluble in hot”.

And the solubility ([4]; solvent water)?
The solubility was “sparingly soluble in hot”.

And the solubility ([4]; solvent xylene)?
The solubility was “soluble in hot”.

What about the “Remarks (behaviour in the solvent mixture)” value [5] of the same compound?
The value was “Decomposition”.
